Assay results taken from patent US20080167248A1, “Anti-Aging Effects Of Substance P” (IMMUNEREGEN BIOSCIENCES, INC., priority 2004, published 2008).

Assays:
Type in all cases: in vivo
scalp hair of a human = test: hair styling gel with the analog applied daily to the scalp, hair colour; details: 0.001 mg/ml in hair styling gel, approximately 2 ml daily to scalp, after a few months; self-observation
Procedure: [Sar9,Met (02)11 ]-substance P was formulated in a hair styling gel at a concentration of 0.001 mg/ml and approximately 2 ml were applied daily to my scalp. […] I estimate my head of hair to be about 40% darker. This observation is consistent with results observed on radiation-exposed mice that had been given the substance P analog.

human [1] = test: running speed (150M build-ups, timed 200M run)
Source text: After taking the analog, I “felt” much faster in my 150M build-ups than previously.

human [2] = test: sleep pattern
Procedure: I have 6 hours sleep on a regular basis. Approximately a week ago, after taking the analog daily for 2 weeks, I was getting 5 hours sleep.

human [3] = test: residual muscle pain after a very hard workout
Source text: I ran five miles with four 150M build-ups and threw a 6 Kg shot-put for the first time. This workout was followed by a session of weightlifting. Before I began treatment with the substance P analog I would take Advil™ at least twice on the day of the work out to prevent muscle pain.

radiation-exposed mice = test: hair regrowth in radiation-exposed mice given the substance P analog
human [4] = test: visual accommodation (adjustment time between long and near vision)
human [5] = test: short-term memory; details: since beginning to apply the analog; names and telephone numbers
Source text: I can remember people's names and telephone numbers more readily.

[Sar9,Met (02)11 ]-substance P
head of hair darker (estimate) (scalp hair of a human): about 40% | overall color of hair (scalp hair of a human): becoming more like my original brown color | perceived speed in 150M build-ups (human [1]; after taking the analog, versus previously): much faster | time in a 200M run (human [1]; timed run): significantly improved | quality of sleep, later (human [2]; about a week later (now)): the vivid dreams and less waking up continue | hours of sleep per night, later (human [2]; about a week later (now), reverted): six | quality of sleep (human [2]; after taking the analog daily for 2 weeks): deeper with more vivid dreams and less “waking up.” | hours of sleep (human [2]; after taking the analog daily for 2 weeks, regular basis 6 hours): 5 h | reduction in residual muscle pain (human [3]; after a very hard workout, self-observation): very large reduction | tightness or soreness in right arm/shoulder from throwing the shot (human [3]; after taking the analog): nor did I experience tightness or soreness | muscle pain after the hard workout (human [3]; five mile run, four 150M build-ups, 6 Kg shot-put, weightlifting, after taking the analog): no muscle pain | regrowth of hair lost upon radiation exposure (radiation-exposed mice; radiation-exposed mice given the substance P analog): regrew hair that was lost upon radiation exposure | colour of new hair growth (radiation-exposed mice; radiation-exposed mice, versus non-exposed area): darker than in the non-exposed area | adjustment time between long and near vision after 97 days (human [4]; after 97 days of administration): little adjustment time | adjustment time between long and near vision (human [4]; during administration): shorter and continues to diminish | memory problems (human [5]): less “middle-aged” memory problems
